These results are taken from patent publication US20080187512A1, “Treatment for spinal muscular atrophy” (Academia Sinica, priority 2007, published 2008).

The structures appear in SMILES notation.

What all share (format): cell-based, mouse
Experiment [1] concerns Stat3 (pY705). The experiment in a line: Signaling pathway screen in SMN2-NSC34 cells.
In experiment [2] the test system is Stat1 (pY701). Put plainly: Signaling pathway screen in SMN2-NSC34 cells.
Experiment [3] relates to Stat2 (pY705). The experiment in a line: Signaling pathway screen in SMN2-NSC34 cells.
For experiment [4], the system named is ERK1/2 (pT202/pY204). Put plainly: Signaling pathway screen in SMN2-NSC34 cells.
In experiment [5] the test system is Stat5 (pT694). Put plainly: Signaling pathway screen in SMN2-NSC34 cells. Also noted: Stat5 (pT694) cellular response: key: −: decreasing; +/−: no activation; +: slight activation; ++: minor activation; +++: significant activation. The settings on record: SMN2-NSC34 cells; for phosphorylation level of Stat5 increased compared to control cells: treatment for 4 hours, α-tubulin internal control. The protocol:
(§1) Western blot analysis. Cells treated by dsRNA, compounds or Stat5A1*6 transfected were detached by scraping, pelletting and rinsing in PBS. Cell pellets were collected after centrifugation and lysed on ice in modified RIPA buffer (50 mM Tris-HCl (pH7.4), 1% NP-40, 0.25% deoxycholic acid, 0.15M NaCl, 1 mM EDTA, 1 mM PMSF/NaF/sodium orthovanadate, and protease inhibitors cocktail (Roche, Mannheim, Germany) for 30 min. After centrifugation, the supernatants were collected and kept frozen at −20° C. Protein concentrations were determined by Bio-Rad protein assay method. For Western blot analysis, protein samples were boiled for 5 min and electrophoresed on 8% or 10% SDS-polyacrylamide gel in a 1× running buffer (25 mM Tris, 192 mM glycine, 3.4 mM SDS, pH 8.3) and subsequently electrotransferred to Polyvinylidene Fluoride tansfer membrane (Pall, Pensacola, Fla.) using a TE 22 mini-tank transfer unit (Amersham Biosciences, San Francisco, Calif.) at 35 volts overnight in transfer buffer (25 mM Tris, 192 mM glycine, 20% methanol, pH8.3). The blotting membranes were incubated in blocking solution (PBS, 5% non-fat milk, 0.2% Tween-20) for 1 hour at room temperature, and then incubated in the same solution with the primary antibody (human-specific SMN/1:1000; SMN/1:5000, Transduction Laboratories, Lexington, Ky.; phospho-Stat5a/b/1:1000, Cell signaling, Beverly, Mass.; phospho-Jak2/1:1000, Upstate, Lake Placid, N.Y.; Flag BioM2/1:1000, Sigma, St. Louis, MO; c-myc/1:200, Santa Cruz Biotech, Santa Cruz, Calif.; α-Tubilin/1:10000, Upstate, Lake Placid, N.Y., MO), overnight at 4° C. The membranes were washed and incubated in the blocking solution with the proper HRP-conjugated secondary antibody at 1/5000 dilution (Chemicon, Temecula, Calif.) for 1 hour at room temperature. After washing three times in PBS containing 0.1% Tween-20, the signals were visualized by autoradiography (Fuji Medical X-ray film, Fuji Photos, Tokyo) using enhanced chemi-luminescence (ECL detection system; Perkin-Elmer, Boston, Calif.). Western blot quantification was performed by scanning the auto-radiographs with a computerized densitometer. Signal intensities were determined by densitometry analysis (Fuji film LAS-1000 plus pictography) using the program Phoreticx 1D (Phoreticx International).
(§2) Therefore, TSA, aclarubicin and sodium vanadate all induce the activation of Stat5A in motor neuron-like NSC34 cells.

In experiment [6] the test system is P38 (pT180/pY182). The experiment in a line: Signaling pathway screen in SMN2-NSC34 cells.
Experiment [7] relates to Stat6 (pT641). Put plainly: Signaling pathway screen in SMN2-NSC34 cells.
Experiment [8] concerns SMN2. The experiment in a line: SMN2 splicing pattern, semi-quantitative RT-PCR in SMA-like MEFs. The settings on record: SMA-like MEFs; for SMN2 splicing pattern MEF: TSA 10 nM, sodium butyrate 25 mM, aclarubicin 80 nM, sodium vanadate 50 μM; for influence on SMN2 expression: time-course RT-PCR. Set-up: key to SMN2 splicing pattern MEF: −: no effect; +: effective; +++: most effective.

Experiment [9] deals with Jak2 (pY1007/pY1008). The experiment in a line: Signaling pathway screen in SMN2-NSC34 cells. Particulars: for Jak2 activation: 2-4 hours after treatment; for Jak2 (pY1007/pY1008) cellular response: SMN2-NSC34 cells. The procedure: as §1, §2
Experiment [10] has as its system SMN2. The experiment in a line: SMN2 splicing pattern, semi-quantitative RT-PCR in SMN2-NSC34 cells. Also noted: key to SMN2 splicing pattern SMN2-NSC34: −: no effect; +: effective; +++: most effective. The settings on record: SMN2-NSC34 cells; TSA 10 nM, sodium butyrate 25 mM, aclarubicin 80 nM, sodium vanadate 100 μM. The procedure:
Cell culture and chemical/dsRNA treatment. Mouse embryonic fibroblasts (MEFs) were prepared using the standard protocol. Briefly, E13.5 day embryo was isolated; the uterine deciduas were cut away, and the yolk sac was removed. The embryo was then scraped out to remove non-fibroblastic tissue, and the head severed for genotyping. Embryo body was minced in 0.25% Trypsin-EDTA and incubated for 30 min. It was then added to MEF culture media, and the cell suspension spun for ˜5 min at 1,000 rpm in the tissue culture centrifuge to pellet cells. The supernatant was aspirated off and the cell pellet immediately resuspended in 10 mL of fresh MEF culture media. The MEFs were allowed to reach confluency so the cells could be passaged for further experiments. Cultured MEFs and SMN2-NSC34 cells were maintained in Dulbecco's modified Eagle medium (Invitrogen, Carlsbad, Calif.) containing 10% heat-inactivated fetal bovine serum (Hyclone, Logan, Utah) and 1% penicillin-streptomycin (Invitrogen, Carlsbad, Calif.) and were incubated at 37° C. in a 5% CO2 humidified atmosphere. The cells were plated the day preceding treatment with each chemical and harvested at the indicated time.
Semi-quantitative PCR/RT-PCR. The genomic DNA from E13.5 SMA embryos was extracted. A specific primer pair, SMN forward 5′-[…]-3′ (SEQ ID NO:21) and SMN backward 5′-[…]-3′ (SEQ ID NO:22), was designed for recognition of both murine Smn and human SMN2. The PCR program initially started with a 95° C. denaturation for 10 min, followed by 19 to 26 cycles of 95° C./1 min. 53° C./1.5 min, 72° C./2 min to assay the linear range for both Smn and SMN2. For RT-PCR assay, total RNA was extracted at indicated time points from SMN2-NSC34 cells with sodium vanadate, TSA, and aclarubicin treatment or with an increasing amount of Stat5A1*6 transfection by using the TRizol reagent (Invitrogen, Carlsbad, Calif.). To amplify the exon7 inclusion/exclusion form of SMN2 transcripts, RT-PCR were performed using a primer set P5P6 as previously described (15). The transcript from the mouse glyceraldehyde-3-phosphate dehydrogenase (Gapdh) gene or the β-Actin gene was amplified using the primer pairs: Gapdh forward: 5′-[…]-3′ (SEQ ID NO:23), and backward: 5′-[…]-3′ (SEQ ID NO:24) (56° C.), and β-Actin forward: 5′-[…]-3′ (SEQ ID NO:25), and backward 5′-[…]-3′ (SEQ ID NO:26) (59° C.), and this allowed control of equal amounts of template. […] The gel images were digitally captured with a CCD camera and analyzed with the Alphalmager™. […] Relative total SMN2 transcript levels were determined from Stat5A1*6 transfected SMN2-NSC34 cells in a minimum of three independent experiments. Differences in ratios were determined to be significant by an independent two-tailed t-test, with *, P<0.05, **, P<0.005, ***, p<0.001.

Experiment [11] relates to JNK (pT183/pY185). Put plainly: Signaling pathway screen in SMN2-NSC34 cells.
Throughout, for Jak2 (pY1007/pY1008) cellular response: key: −: decreasing; +/−: no activation; +: slight activation; ++: minor activation; +++: significant activation.

In the case of `CC[C@@]1(O)C[C@H](O[C@H]2C[C@H](N(C)C)[C@H](O[C@H]3C[C@H](O)[C@H](O[C@H]4CCC(=O)[C@H](C)O4)[C@H](C)O3)[C@H](C)O2)c2c(cc3c(c2O)C(=O)c2c(O)cccc2C3=O)[C@H]1C(=O)OC` [Aclarubicin], the “Stat3 (pY705) cellular response” value was “+” in [1] (4 hrs) and “++” in experiment [1] (8 hrs). The “Stat1 (pY701) cellular response” value in experiment [2] (4 hrs) and in [2] (8 hrs) was “+/−” each time. In addition, the “Stat2 (pY705) cellular response” value in [3] (4 hrs) is listed as “+”; in experiment [3] (8 hrs) it was “+/−”. Moreover, the “ERK1/2 (pT202/pY204) cellular response” value in experiment [4] (4 hrs) and in experiment [4] (8 hrs) was “+/−” throughout. For the same compound, the “Stat5 (pT694) cellular response” value in experiment [5] (4 hrs) was “++”; in experiment [5] (8 hrs), “+++”. For the same compound, in experiment [5], the “Stat5 phosphorylation status at 8 hours” value is reported as “remained activated”. Besides, in experiment [5], the “phosphorylation level of Stat5 increased compared to control cells” value was “about 2 fold”. In addition, the “P38 (pT180/pY182) cellular response” value in [6] (4 hrs) and in [6] (8 hrs) was “+/−” each time. The “Stat6 (pT641) cellular response” value was “+/−” in [7] (4 hrs) and “−” in [7] (8 hrs). Further, in [8], the “SMN2 splicing pattern MEF” value is on record as “+”. Besides, the “influence on SMN2 expression” value in [8] is listed as “found to influence SMN2 expression”. In addition, the Jak2 activation result in experiment [9] was “found activated”. Also, the “Jak2 (pY1007/pY1008) cellular response” value is given as “+” in [9] (4 hrs) and “+/−” in experiment [9] (8 hrs).
As to `CC1=C(/C=C/C(C)=C/C=C/C(C)=C/C(=O)O)C(C)(C)CCC1` [All-trans retinoic acid], the “SMN2 splicing pattern MEF” value in experiment [8] is “−”.
For the compound `NC(=O)NO` [Hydroxyurea], the “SMN2 splicing pattern MEF” value in experiment [8] is “−”.
On the same count and under the same terms, the same measure for `CC(=O)N[C@@H](CS)C(=O)O` [N-Acetyl-L-cysteine]: “−”; for `CCCCCCCCCCCCCC(=O)O[C@@H]1[C@@H](C)[C@@]2(O)[C@@H](C=C(CO)C[C@]3(O)C(=O)C(C)=C[C@@H]23)[C@@H]2C(C)(C)[C@]12OC(C)=O` [Phorbol-12-myristate-13-acetate]: “−”.
For `CCCC(=O)[O-].[Na+]` [Sodium butyrate], in experiment [10], the “SMN2 splicing pattern SMN2-NSC34” value is reported as “+”. Moreover, the “SMN2 splicing pattern MEF” value in [8] is given as “+”.
Regarding `CC(/C=C/C(=O)NO)=C\[C@@H](C)C(=O)c1ccc(N(C)C)cc1` [Trichostatin A (TSA), Trichostatin A], the “Stat3 (pY705) cellular response” value in [1] (4 hrs) is given as “+”; in [1] (8 hrs), “++”. Further, the “Stat1 (pY701) cellular response” value in experiment [2] (4 hrs) and in [2] (8 hrs) was “−” throughout. Further, the “Stat2 (pY705) cellular response” value in experiment [3] (4 hrs) and in [3] (8 hrs) was “+/−” each time. For the same compound, the “ERK1/2 (pT202/pY204) cellular response” value in experiment [4] (4 hrs) and in [4] (8 hrs) was “+” throughout. The “Stat5 (pT694) cellular response” value in [5] (4 hrs) is “++”; in experiment [5] (8 hrs), “+++”. Also, in experiment [5], the “Stat5 phosphorylation status at 8 hours” value is “remained activated”. The “phosphorylation level of Stat5 increased compared to control cells” value in [5] is “about 2 fold”. For the same compound, the “P38 (pT180/pY182) cellular response” value in experiment [6] (4 hrs) is given as “+/−”; in [6] (8 hrs), “+”. Besides, the “Stat6 (pT641) cellular response” value in experiment [7] (4 hrs) is “+/−”; in [7] (8 hrs), “−”. For the same compound, the “SMN2 splicing pattern MEF” value in [8] was “+”. Further, in experiment [8], the “influence on SMN2 expression” value is given as “found to influence SMN2 expression”. Besides, the Jak2 activation entry in [9] is recorded as “found activated”. In addition, the “Jak2 (pY1007/pY1008) cellular response” value in [9] (4 hrs) is reported as “+”; in [9] (8 hrs), “+/−”. Besides, the “JNK (pT183/pY185) cellular response” value in [11] (4 hrs) was “+/−”; in experiment [11] (8 hrs), “+”.
